Article PMC9327782, “Benzoxazole derivatives as new VEGFR-2 inhibitors and apoptosis inducers: design, synthesis, in silico studies, and antiproliferative evaluation” (Journal of Enzyme Inhibition and Medicinal Chemistry, 2022)
Like-named read-outs stand apart in the source and are kept apart here.

Legend:
HepG2 cell line = test: In vitro anti-proliferative MTT assay, HepG2; assay type: cell-based, human; details: Homo sapiens
Source text: The cytotoxicity results were obtained as median growth inhibitory concentration (IC50).
MTT assay protocol. This method was applied in accordance with the comprehensive description in Supplementary data. […]
5 Raw data of cytotoxity and VEGFR -2 assay […]
Experimental of biological testing
1. In vitro anti-proliferative activity
MTT assay protocol was applied to assess the anti-proliferative activity of the synthesized compounds. Two human cancer cell lines (MCF-7 and HepG-2) and one normal cell line (WI-38) were used in this test. At first, the cell lines were cultured in RPMI -1640 medium with 10% fetal bovine serum. Antibiotics (100 units/ml penicillin and100 µg/ml streptomycin ) were added at 37 °C in a 5% CO2 incubator. The cell lines were seeded in a 96-well plate at a density of 1.0 x 10^4 cells / well at 37 °C for 24 h under 5% CO2. After incubation, the cells were treated with different […]
concentration of the synthesized compounds and incubated for 24 h. After 24 h of drug treatment, 20 µl of MTT solution at 5mg/ml was added and incubated for 4 h. Dimethyl sulfoxide (DMSO) in volume of 100 µl was added into each well to dissolve the purple formazan formed. The colorimetric assay was measured and recorded at absorbance of 570 nm using a plate reader (EXL 800, USA). The relative cell viability in percentage was calculated as (A570 of treated samples/A570 of untreated sample) X 100. […]

HepG2 cells = test: Flow cytometry cell cycle analysis (PI staining); assay type: cell-based, human; details: HepG2, 10.50 µM, 24 h
Method: Compound 12I, achieved notable cytotoxic and VEGFR-2 inhibitory potencies was further studied mechanistically for cell cycle progression and induction of apoptosis in HepG2 cells. Cell cycle process was analysed after exposure of HepG2 cells to 12I with a concentration of 10.50 µM for 24 h.
This assay was applied using propidium iodide (PI) staining in accordance with the comprehensive description in Supplementary data[34]^,[35] […]
3. Flow cytometry analysis for cell cycle
To determine the role of the synthesized compounds in cell cycle distribution, cell cycle analysis was performed using propidium iodide (PI) staining and flow cytometry analysis for compound
12l. Flow Cytometry Kit for Cell Cycle Analysis (ab139418_Propidium Iodide Flow Cytometry Kit/BD) was used in this test. HepG2 cells were treated with compound 12l (10.50 µM) for 24 h.
Then, the cells were fixed in 70% ethanol at 4 °C for 12 h. After that, the cells were washed with cold PBS, incubated with 100 μl RNase A at 37 °C for 30 min, and stained with 400 μl PI in the dark at room temperature for further 30 min. The stained cells were measured using Epics XL-MCL™ Flow Cytometer (Beckman Coulter), and the data were analyzed using Flowing software (version 2.5.1, Turku Centre for Biotechnology, Turku, Finland) .

Bcl-2 = test: Western blot, Bcl-2 level in HepG2 cells; assay type: cell-based, human; details: HepG2, 24 h
Method: Compound 12lwas subjected to further cellular mechanistic study. The cellular levels of BAX and Bcl-2 were measured using the western blot technique after compound 12l was applied to HepG2 cells for 24 h.
The western blot technique was applied in accordance with the comprehensive description in Supplementary data[38–40] […]
The proteins expression of cleaved caspase‐3, BAX, and Bcl‐2 were determined using Western blot analysis. In brief, HepG2 cells were treated with control, or with the synthesized compounds.
Then cells were lysed in 250 μL precold lysis buffer (pH 7.4: Tris‐Base [10 mM], NaCl [100 mM], ethylenediaminetetraacetic acid [EDTA, 25 mM], ethylene glycol bis (2‐aminoethyl) tetraacetic acid [EGTA, 25 mM], 1% [v/v] NP‐40, and 1% [v/v] Triton X‐100) supplemented with 1:350 protease:phosphatase inhibitors cocktail (Sigma). The cells were immediately frozen at −20°C for 1.5 hours for further lysis, collected by cell scraper, sonicated 3 × 10 seconds, and centrifuged (13000 rpm, 15 minutes). Total protein concentrations in the supernatant were determined colorimetrically using the Pierce 660 nm Protein Assay method (Thermo Fisher Scientific, Rockford, IL), with BSA as the standard. […]

VEGFR-2 = molecular target: T1, VEGFR-2 (Homo sapiens, UniProt P35968); test: In vitro VEGFR-2 kinase assay (ELISA kit); assay type: biochemical
T1 construct: purchased
T1 sequence (P35968 20-1356): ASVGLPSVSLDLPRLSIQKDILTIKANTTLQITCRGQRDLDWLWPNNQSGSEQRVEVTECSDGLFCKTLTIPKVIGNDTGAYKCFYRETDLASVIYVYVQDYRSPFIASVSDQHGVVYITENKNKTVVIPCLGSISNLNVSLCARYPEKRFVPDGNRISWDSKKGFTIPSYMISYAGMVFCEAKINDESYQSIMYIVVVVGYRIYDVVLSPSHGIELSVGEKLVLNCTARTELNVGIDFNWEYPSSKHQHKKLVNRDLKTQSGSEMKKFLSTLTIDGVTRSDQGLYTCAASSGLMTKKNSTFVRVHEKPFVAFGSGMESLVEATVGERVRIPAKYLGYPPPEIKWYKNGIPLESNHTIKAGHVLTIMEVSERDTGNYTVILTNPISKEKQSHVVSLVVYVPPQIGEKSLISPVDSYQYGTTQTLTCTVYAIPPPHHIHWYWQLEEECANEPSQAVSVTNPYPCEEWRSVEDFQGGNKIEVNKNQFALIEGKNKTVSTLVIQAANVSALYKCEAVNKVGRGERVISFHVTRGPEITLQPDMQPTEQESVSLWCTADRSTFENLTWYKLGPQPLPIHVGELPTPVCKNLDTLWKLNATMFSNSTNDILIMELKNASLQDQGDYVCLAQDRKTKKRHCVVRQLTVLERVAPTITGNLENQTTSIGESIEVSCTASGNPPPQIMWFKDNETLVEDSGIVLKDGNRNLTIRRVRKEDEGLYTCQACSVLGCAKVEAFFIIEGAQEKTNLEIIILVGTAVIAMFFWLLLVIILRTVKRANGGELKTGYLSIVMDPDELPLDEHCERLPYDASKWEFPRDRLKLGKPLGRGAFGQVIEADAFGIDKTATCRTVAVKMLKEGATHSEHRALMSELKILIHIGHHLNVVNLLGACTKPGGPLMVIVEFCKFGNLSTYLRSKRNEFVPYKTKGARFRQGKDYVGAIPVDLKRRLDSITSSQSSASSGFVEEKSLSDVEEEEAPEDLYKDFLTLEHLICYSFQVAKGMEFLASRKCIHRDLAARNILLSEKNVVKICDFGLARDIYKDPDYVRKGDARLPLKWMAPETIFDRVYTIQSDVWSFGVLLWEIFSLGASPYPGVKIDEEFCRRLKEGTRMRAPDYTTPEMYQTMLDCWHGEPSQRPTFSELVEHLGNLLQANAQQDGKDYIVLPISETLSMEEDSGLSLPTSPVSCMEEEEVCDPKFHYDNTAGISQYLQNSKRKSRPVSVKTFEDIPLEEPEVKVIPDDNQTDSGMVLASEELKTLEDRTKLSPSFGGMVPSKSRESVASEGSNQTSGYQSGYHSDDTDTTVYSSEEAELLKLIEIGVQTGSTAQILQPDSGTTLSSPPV
Method: The assay was applied by ELISA kits in accordance with the comprehensive description in[18]^,[33] as described in Supplementary data. […]
2. In vitro VEGFR-2 kinase assay
All the synthesized compounds were tested for its inhibitory activity against VEGFR-2. Human VEGFR-2 ELISA kit (Enzyme-Linked Immunosorbent Assay) was utilized in this test. At first, specific antibody for VEGFR-2 was seeded on a 96-well plate and 100 μL of the standard solution or the tested compound was added, all were incubated at room temperature for 2.5 h. Then washed, 100 μL of the prepared biotin antibody was added, then incubated at room temperature for additional 1 h. and washed. Then, 100 μL of streptavidin solution was added and incubated for 45 min. at room temperature. Washed again, 100 μL of TMB Substrate reagent was added and incubated for 30 min. at room temperature. 50 μL of the stop solution was added, then read at 450 […]
nm immediately. […]

Cc1ccc2oc(SCC(=O)Nc3ccc(C(=O)Nc4cccc(Cl)c4)cc3)nc2c1 [Compound 12l, N-(3-Chlorophenyl)-4–(2-((5-methylbenzo[d]oxazol-2-yl)thio)acetamido)benzamide]
IC50 (HepG2 cell line; HepG2, 24 h, MTT, 24 h treatment, mean of three experiments, read-out: In vitro IC50 HepG2): 10.5 ± 0.8 µM
IC50 (HepG2 cell line; HepG2, supplement raw data, dose-response curve fit, read-out: LogIC50 best-fit value, HepG2 (converted)): 10.5 µM
Cell cycle distribution %S (HepG2 cells): 38.68%
Cell cycle distribution % G2/M (HepG2 cells; listed as 12I): 32.10%
Cell cycle distribution %Sub-G1 (Pre-G1) (HepG2 cells; listed as 12I): 0.79%
Cell cycle distribution % G2/M (HepG2 cells; listed as 12 l): 32.10 ± 181 %
Cell cycle distribution %G1 (HepG2 cells; listed as 12 l): 28.43 ± 0.37 %
Cell cycle distribution %S (HepG2 cells; listed as 12 l): 38.68 ± 1.81 %
Cell cycle distribution %Sub-G1 (Pre-G1) (HepG2 cells; listed as 12 l): 0.79 ± 0.25%
Protein expression (normalized to β-actin) Bcl-2 (Bcl-2; control = 1.00): 0.47 ± 0.05
Bcl-2 level decrease (Bcl-2; versus control): 2.12 fold
IC50 (VEGFR-2; ELISA kit): 0.0974 µM
HillSlope best-fit value, VEGFR-2 (VEGFR-2; supplement raw data, curve fit): -0.4614
LogIC50 best-fit value, VEGFR-2 (VEGFR-2; supplement raw data, curve fit): 1.988 Log (nM)
